Patent publication US12054503B2, “Amphiphilic material and application thereof in preparation for liposome” (ZHEJIANG UNIVERSITY, priority 2021, dated 2024)

Experiments:
U251 glioma = experiment: In vivo antitumor activity in mice bearing U251 glioma subcutaneously
Experimental: In vivo antitumor activity of the liposomal nanometer particle was further tested in another low permeability tumor of U251 glioma. The mice were subcutaneously inoculated with 2×10^7 U251 cells on the right flank. Same as the experiment of pancreatic tumor treatment, mice were randomly grouped into five groups (n=5) on the 6th day after inoculation. SCGLN, SGLN, free GEM (all dose equivalent to GEM 20 mg/kg), SCLN and PBS were intravenous injected every two days for a total of five times, the tumor site was treated with ultrasound stimulation (intensity: 2 W/cm^2, 3 MHz, duty cycle: 50%, duration: 10 min, Mettler Sonicator-740) after injection, the first administration was on the 6th day. The width and length of the tumors and the bodyweight of mice were measured during the treatment. At the end of the experiment, the mice were euthanized, and tumors were dissected and weighed. The therapeutic efficacy of the treatments was evaluated by comparing the experimental group with the control group.

[1] = test system: orthotropic pancreatic tumor (BxPC3-Luci); experiment: In vivo antitumor activity in orthotropic BxPC3 tumor-bearing mice
Experimental: The orthotropic pancreatic tumor was established by using the bioluminescent BxPC3 cells (BxPC3-Luci). Bioluminescence intensities in mice were measured using the in vivo imaging system of Caliper IVIS Lumina II (PerkinElmer, USA) to evaluate tumour growth. After inoculation with bioluminescent BxPC3 cells for 8 days, the mice were selected and grouped into five groups (n=5). SCGLN, SGLN, free GEM (all dose equivalent to GEM 20 mg/kg), SCLN and PBS were intravenous injected every two days for a total of five times, the tumor site was treated with ultrasound stimulation (intensity: 2 W/cm^2, 3 MHz, duty cycle: 50%, duration: 10 min, Mettler Sonicator-740) after injection. On the first administration (8th day), 12th, 16th, and 20th day, tumor progress was assessed and semi-quantitatively analyzed via bioluminescence after injection of 10 mg/mL D-luciferin in PBS (200 μL) by using the in vivo imaging system. Mice were sacrificed on the 20th day, and tumors were dissected and weighed. The tumor inhibition rate=100%×(mean tumor weight of PBS group−mean tumor weight of experimental group)/mean tumor weight of PBS group. The tumors were fixed with 4% neutral buffered paraformaldehyde and embedded in paraffin. Tissue sections of 5-μm thick were mounted onto glass slides and stained with hematoxylin-eosin (H&E) and examined by light microscopy (OLYMPUS, BX51, Japan). […]

Structure (SMILES): Nc1ccn([C@@H]2O[C@H](CO)[C@@H](O)C2(F)F)c(=O)n1 [GEM, gemcitabine]
- Anti-tumor effect (tumor eradication ability) (U251 glioma; dose equivalent to GEM 20 mg/kg i.v. every two days, five times, ultrasound stimulation, end of the experiment): 68.8%
- Weight of mice during the treatment (U251 glioma; mouse, in vivo): gradually decreased
- Mean tumor inhibition rate ([1]; dose equivalent to GEM 20 mg/kg i.v. every two days, five times, ultrasound stimulation, tumor weight on 20th day): 66.7%
- Body weight decrease at the end of the experiment ([1]; end of the experiment): ~10 % of the initial weight
